US20240116988A1, “ANTI-ROR1 MACROCYCLIC PEPTIDES AND COMPOSITIONS” (BRISTOL-MYERS SQUIBB COMPANY, priority 2022, published 2024)
Positions of bridges follow the written chain, without caps; N, C: chain ends. Non-standard residues stand in square brackets, D forms with d. Residues, ends and D or L forms follow the SMILES beside them. NMeF = CN[C@@H](Cc1ccccc1)C(=O)O; NMeNle = CCCC[C@H](NC)C(=O)O; NMeA = CN[C@@H](C)C(=O)O

Biological target: T1, human ROR1 (Homo sapiens, UniProt Q01973)
T1 construct: host or cells: HEK 293T cells, Tet-on system induced with doxycycline
T1 sequence (Q01973 30-937): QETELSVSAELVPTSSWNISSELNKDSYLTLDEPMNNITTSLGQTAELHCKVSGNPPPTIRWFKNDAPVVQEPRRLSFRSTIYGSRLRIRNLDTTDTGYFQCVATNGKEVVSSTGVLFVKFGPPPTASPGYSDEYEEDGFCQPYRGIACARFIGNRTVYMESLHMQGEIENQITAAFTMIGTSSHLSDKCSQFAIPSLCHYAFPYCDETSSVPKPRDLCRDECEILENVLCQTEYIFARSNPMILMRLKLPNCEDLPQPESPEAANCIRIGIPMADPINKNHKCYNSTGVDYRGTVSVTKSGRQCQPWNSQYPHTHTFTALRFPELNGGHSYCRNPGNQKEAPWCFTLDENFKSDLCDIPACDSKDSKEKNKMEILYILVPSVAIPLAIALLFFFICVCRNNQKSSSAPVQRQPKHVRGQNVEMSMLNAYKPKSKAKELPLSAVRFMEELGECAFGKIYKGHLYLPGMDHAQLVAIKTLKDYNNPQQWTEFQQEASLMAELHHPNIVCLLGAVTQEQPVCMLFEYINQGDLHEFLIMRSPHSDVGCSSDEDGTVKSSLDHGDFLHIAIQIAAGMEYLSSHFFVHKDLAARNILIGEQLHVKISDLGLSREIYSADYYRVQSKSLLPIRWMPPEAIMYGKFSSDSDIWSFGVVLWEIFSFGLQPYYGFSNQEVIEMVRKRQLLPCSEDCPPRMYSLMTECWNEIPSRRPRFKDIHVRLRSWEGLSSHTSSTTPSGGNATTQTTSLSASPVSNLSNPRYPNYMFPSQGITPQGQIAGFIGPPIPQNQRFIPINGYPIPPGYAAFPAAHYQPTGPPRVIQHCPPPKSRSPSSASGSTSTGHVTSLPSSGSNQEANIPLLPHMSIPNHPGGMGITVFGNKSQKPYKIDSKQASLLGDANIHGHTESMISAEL
Experiment: ROR1 high content cell-based binding assay
Conditions: read-out: ROR1 Binding 293T Human HC Cell Based Assay IC50
Outline: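 Doxycycline-induced 293T cells expressing human ROR1, seeded overnight, were treated with compound plus 5-FAM-labeled ROR1-binding probe peptide (30 nM final) for 1 h at 37 °C. After washing and formaldehyde/Hoechst fixation, cell-bound probe fluorescence was read by high-content imaging.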

Row | Compound | IC50 [µM]
1 | CC(C)C[C@@H]1NC(=O)[C@H](Cc2c[nH]c3ccccc23)NC(=O)[C@H](Cc2ccccc2)NC(=O)[C@H](Cc2c[nH]c3ccccc23)NC(=O)CNC(=O)CNC(=O)[C@H](CC(C)C)NC(=O)[C@H](C(C)C)NC(=O)[C@H](CC(C)C)NC(=O)[C@H](Cc2ccc(O)cc2)NC(=O)[C@H](Cc2ccccc2)NC(=O)CSC[C@@H](C(=O)NCC(N)=O)NC1=O [Example 1010] ({CH2CO}-FYLVLGGWFWLCG-NH2; thioether N-12) | 0.821
2 | CN1C(=O)CNC(=O)[C@H](Cc2ccc(O)cc2)NC(=O)[C@H](Cc2ccccc2)NC(=O)CSC[C@@H](C(N)=O)NC(=O)[C@H](Cc2c[nH]c3ccccc23)NC(=O)[C@H](Cc2ccc(O)cc2)NC(=O)[C@H](Cc2ccccc2)NC(=O)[C@H](CC(N)=O)NC(=O)[C@@H]1Cc1ccccc1 [Example 1103] ({CH2CO}-FYG[NMeF]NFYWC-NH2; thioether N-9) | 0.923
3 | CC(C)C[C@@H]1NC(=O)[C@H](Cc2ccc(O)cc2)NC(=O)[C@H](Cc2ccccc2)NC(=O)CSC[C@@H](C(=O)NCC(N)=O)NC(=O)[C@H](CC(C)C)NC(=O)[C@H](Cc2ccccc2)N(C)C(=O)[C@H](Cc2ccc(O)cc2)NC(=O)[C@H](Cc2c[nH]c3ccccc23)NC(=O)CNC(=O)[C@H](CCCNC(=N)N)NC(=O)CNC(=O)[C@H](C(C)C)NC1=O [Example 1033] ({CH2CO}-FYLVGRGWY[NMeF]LCG-NH2; thioether N-12) | 0.768
4 | CC(C)C[C@@H]1NC(=O)[C@H](Cc2ccc(O)cc2)NC(=O)[C@H](Cc2ccccc2)NC(=O)CSC[C@@H](C(=O)NCC(N)=O)NC(=O)[C@H](CC(C)C)NC(=O)[C@H](Cc2ccccc2)N(C)C(=O)[C@H](C)NC(=O)[C@H](Cc2c[nH]c3ccccc23)NC(=O)CNC(=O)[C@H](CO)NC(=O)[C@H](Cc2ccc(O)cc2)NC(=O)[C@H](C(C)C)NC1=O [Example 1039] ({CH2CO}-FYLVYSGWA[NMeF]LCG-NH2; thioether N-12) | 0.681
5 | CC(C)C[C@@H]1NC(=O)[C@H](Cc2ccc(O)cc2)NC(=O)[C@H]([C@@H](C)O)NC(=O)CSC[C@@H](C(=O)NCC(N)=O)NC(=O)[C@H](CC(C)C)NC(=O)[C@H](Cc2ccccc2)N(C)C(=O)[C@H](Cc2ccc(O)cc2)NC(=O)[C@H](Cc2c[nH]c3ccccc23)NC(=O)CNC(=O)[C@H](CO)NC(=O)[C@H](Cc2ccc(O)cc2)NC(=O)[C@H](C(C)C)NC1=O [Example 1073] ({CH2CO}-TYLVYSGWY[NMeF]LCG-NH2; thioether N-12) | 0.249
6 | CC(C)C[C@@H]1NC(=O)[C@H](Cc2ccc(O)cc2)NC(=O)[C@H](Cc2ccccc2)NC(=O)CSC[C@@H](C(=O)NCC(N)=O)NC(=O)[C@H](CC(C)C)NC(=O)[C@H](Cc2ccccc2)N(C)C(=O)[C@H](Cc2ccc(O)cc2)NC(=O)[C@H](Cc2c[nH]c3ccccc23)NC(=O)CNC(=O)[C@H](CO)NC(=O)[C@H](Cc2cnc[nH]2)NC(=O)[C@H](C(C)C)NC1=O [Example 1030] ({CH2CO}-FYLVHSGWY[NMeF]LCG-NH2; thioether N-12) | 0.275
7 | CC(C)C[C@@H]1NC(=O)[C@@H](CCC(N)=O)NC(=O)[C@H](Cc2ccccc2)N(C)C(=O)CNC(=O)[C@H](Cc2ccc(O)cc2)NC(=O)[C@H](Cc2ccccc2)NC(=O)CSC[C@@H](C(N)=O)NC(=O)[C@H](Cc2c[nH]c3ccccc23)NC(=O)[C@H](Cc2ccc(O)cc2)NC1=O [Example 1122] ({CH2CO}-FYG[NMeF][dQ]LYWC-NH2; thioether N-9) | 0.567
8 | CC(C)C[C@@H]1NC(=O)CNC(=O)[C@H](Cc2ccccc2)N(C)C(=O)CNC(=O)[C@H](Cc2ccc(O)cc2)NC(=O)[C@H](Cc2ccccc2)NC(=O)CSC[C@@H](C(N)=O)NC(=O)[C@H](Cc2c[nH]c3ccccc23)NC(=O)[C@H](Cc2ccc(O)cc2)NC1=O [Example 1105] ({CH2CO}-FYG[NMeF]GLYWC-NH2; thioether N-9) | 0.675
9 | CC(C)C[C@@H]1NC(=O)[C@H](Cc2ccc(O)cc2)NC(=O)[C@H](Cc2ccccc2)NC(=O)CSC[C@@H](C(=O)NCC(N)=O)NC(=O)[C@H](CC(C)C)NC(=O)[C@H](Cc2ccccc2)N(C)C(=O)[C@H](Cc2ccc(O)cc2)NC(=O)[C@H](Cc2c[nH]c3ccccc23)NC(=O)CNC(=O)[C@H](CO)NC(=O)[C@H](CCCCN)NC(=O)[C@H](C(C)C)NC1=O [Example 1029] ({CH2CO}-FYLVKSGWY[NMeF]LCG-NH2; thioether N-12) | 0.255

These reach a lower IC50. Values come first.

Row | IC50 [µM] | Compound
10 | 0.214 | CC(C)C[C@@H]1NC(=O)[C@H](Cc2ccc(O)cc2)NC(=O)[C@H](Cc2ccccc2)NC(=O)CSC[C@@H](C(=O)NCC(N)=O)NC(=O)[C@H](CC(C)C)NC(=O)[C@H](Cc2ccccc2)N(C)C(=O)[C@H](Cc2ccc(O)cc2)NC(=O)[C@H](Cc2c[nH]c3ccccc23)NC(=O)CNC(=O)[C@H](CO)NC(=O)[C@H](CCC(N)=O)NC(=O)[C@H](C(C)C)NC1=O [Example 1031] ({CH2CO}-FYLVQSGWY[NMeF]LCG-NH2; thioether N-12)
11 | 0.199 | CC(C)C[C@@H]1NC(=O)[C@H](Cc2ccc(O)cc2)NC(=O)[C@H](Cc2ccccc2)NC(=O)CSC[C@@H](C(=O)NCC(N)=O)NC(=O)[C@H](C)N(C)C(=O)[C@H](Cc2ccccc2)N(C)C(=O)[C@H](Cc2ccc(O)cc2)NC(=O)[C@H](Cc2c[nH]c3ccccc23)NC(=O)CNC(=O)[C@H](CO)NC(=O)[C@H](Cc2ccc(O)cc2)NC(=O)[C@H](C(C)C)NC1=O [Example 1064] ({CH2CO}-FYLVYSGWY[NMeF][NMeA]CG-NH2; thioether N-12)
12 | 0.172 | CC(C)C[C@@H]1NC(=O)[C@H](CCCNC(=N)N)NC(=O)[C@H](Cc2ccccc2)NC(=O)CSC[C@@H](C(=O)NCC(N)=O)NC(=O)[C@H](CC(C)C)NC(=O)[C@H](Cc2ccccc2)N(C)C(=O)[C@H](Cc2ccc(O)cc2)NC(=O)[C@H](Cc2c[nH]c3ccccc23)NC(=O)CNC(=O)[C@H](CO)NC(=O)[C@H](Cc2ccc(O)cc2)NC(=O)[C@H](C(C)C)NC1=O [Example 1051] ({CH2CO}-FRLVYSGWY[NMeF]LCG-NH2; thioether N-12)
13 | 0.099 | CC(C)C[C@@H]1NC(=O)[C@H](Cc2ccccc2)NC(=O)CSC[C@@H](C(=O)NCC(N)=O)NC(=O)[C@H](C)NC(=O)[C@H](Cc2c[nH]c3ccccc23)NC(=O)[C@H](Cc2ccccc2)NC(=O)[C@H](Cc2c[nH]c3ccccc23)NC(=O)CNC(=O)[C@H](Cc2ccc(O)cc2)NC(=O)[C@H](CCCNC(=N)N)NC(=O)[C@H](C(C)C)NC(=O)[C@H](Cc2c[nH]c3ccccc23)NC1=O [Example 1004] ({CH2CO}-FLWVRYGWFWACG-NH2; thioether N-12)
14 | 0.097 | CC(C)C[C@@H]1NC(=O)[C@H](Cc2ccccc2)NC(=O)[C@H](Cc2ccccc2)N(C)C(=O)CNC(=O)[C@H](Cc2ccc(O)cc2)NC(=O)[C@H](Cc2ccccc2)NC(=O)CSC[C@@H](C(N)=O)NC(=O)[C@H](Cc2c[nH]c3ccccc23)NC(=O)[C@H](Cc2ccc(O)cc2)NC1=O [Example 1102] ({CH2CO}-FYG[NMeF]FLYWC-NH2; thioether N-9)
15 | 0.079 | CC(C)C[C@@H]1NC(=O)[C@H](Cc2ccc(O)cc2)NC(=O)[C@H](Cc2ccccc2)NC(=O)CSC[C@@H](C(=O)NCC(N)=O)NC(=O)[C@H](CC(C)C)NC(=O)[C@H](Cc2ccccc2)N(C)C(=O)[C@H](Cc2ccc(O)cc2)NC(=O)[C@H](Cc2c[nH]c3ccccc23)NC(=O)CNC(=O)[C@H](CO)NC(=O)[C@H](CCCNC(=N)N)NC(=O)[C@H](C(C)C)NC1=O [Example 1023] ({CH2CO}-FYLVRSGWY[NMeF]LCG-NH2; thioether N-12)
16 | 0.072 | CC(C)C[C@@H]1NC(=O)[C@H](Cc2ccc(O)cc2)NC(=O)[C@H](Cc2ccccc2)NC(=O)CSC[C@@H](C(=O)NCC(N)=O)NC(=O)[C@H](CC(C)C)NC(=O)[C@H](Cc2ccccc2)N(C)C(=O)[C@H](Cc2ccc(O)cc2)NC(=O)[C@H](Cc2c[nH]c3ccccc23)NC(=O)[C@H](C)NC(=O)[C@H](CO)NC(=O)[C@H](Cc2ccc(O)cc2)NC(=O)[C@H](C(C)C)NC1=O [Example 1071] ({CH2CO}-FYLVYSAWY[NMeF]LCG-NH2; thioether N-12)
17 | 0.036 | CC(C)C[C@@H]1NC(=O)[C@H](Cc2c[nH]c3ccccc23)NC(=O)[C@H](Cc2ccccc2)NC(=O)[C@H](Cc2c[nH]c3ccccc23)NC(=O)CNC(=O)[C@H](CO)NC(=O)[C@H](Cc2ccc(O)cc2)NC(=O)[C@H](C(C)C)NC(=O)[C@@H]2CCCN2C(=O)[C@H](Cc2ccc(O)cc2)NC(=O)[C@H](Cc2ccccc2)NC(=O)CSC[C@@H](C(=O)NCC(N)=O)NC1=O [Example 1012] ({CH2CO}-FYPVYSGWFWLCG-NH2; thioether N-12)
18 | 0.03 | CC(C)C[C@@H]1NC(=O)[C@H](Cc2ccccc2)NC(=O)CSC[C@@H](C(=O)NCC(N)=O)NC(=O)[C@H](C)NC(=O)[C@H](Cc2ccc(O)cc2)NC(=O)[C@H](Cc2ccc(O)cc2)NC(=O)[C@H](Cc2c[nH]c3ccccc23)NC(=O)CNC(=O)[C@H](Cc2ccc(O)cc2)NC(=O)[C@H](CCCNC(=N)N)NC(=O)[C@H](C(C)C)NC(=O)[C@H](Cc2c[nH]c3ccccc23)NC1=O [Example 1005] ({CH2CO}-FLWVRYGWYYACG-NH2; thioether N-12)
19 | 0.008 | CCCC[C@H]1C(=O)N[C@H](C(=O)NCC(N)=O)CSCC(=O)N[C@@H](Cc2ccccc2)C(=O)N[C@@H](Cc2ccc(O)cc2)C(=O)N[C@@H](Cc2c[nH]c3ccccc23)C(=O)N[C@@H](CO)C(=O)N[C@@H](CO)C(=O)N[C@@H](CCCNC(=N)N)C(=O)N(C)[C@@H](C)C(=O)N[C@@H](Cc2c[nH]c3ccccc23)C(=O)N[C@@H](Cc2ccc(O)cc2)C(=O)N[C@@H](CC(C)C)C(=O)N1C [Example 1003] ({CH2CO}-FYWSSR[NMeA]WYL[NMeNle]CG-NH2; thioether N-12)
20 | 0.005 | CC(C)C[C@@H]1NC(=O)[C@H](Cc2ccccc2)N(C)C(=O)[C@H](Cc2ccc(O)cc2)NC(=O)[C@H](Cc2c[nH]c3ccccc23)NC(=O)CNC(=O)[C@H](CO)NC(=O)[C@H](Cc2ccc(O)cc2)NC(=O)[C@H](C(C)C)NC(=O)[C@@H]2CCCN2C(=O)[C@H](Cc2ccc(O)cc2)NC(=O)[C@H](Cc2ccccc2)NC(=O)CSC[C@@H](C(=O)NCC(N)=O)NC1=O [Example 1066] ({CH2CO}-FYPVYSGWY[NMeF]LCG-NH2; thioether N-12)
